The text below walks through data of patent US12031897B2, “Target-locking single-molecule nanoscopy” (Memorial Sloan Kettering Cancer Center, priority 2019, dated 2024).

The subject of this experiment is Pol II (FLAG-SNAP-Rpb1) at the Pou5f1 locus. Kind of experiment: ChIP-qPCR of Pol II at the Pou5f1 locus after flavopiridol treatment (mESCs). The class given is cell-based, mouse. Conditions: 10 μM flavopiridol; by the 5-minute and 12.5-minute time points respectively. How it is done: mESCs. Confluent 15 cm dishes (˜10×10^6 OMG SNAP-Rpb1 clone 3 cells) were treated with 10 μM Flavopiridol or DMSO for the indicated times. Methanol-free formaldehyde (Thermo Fisher) was then directly added to the media to 1% v/v final concentration, and dishes were immediately placed on a rotator/shaker for 10 min at RT. Formaldehyde was quenched with 125 mM glycine for 5 min at RT, and cells were scraped and collected with centrifugation (800×g, 5 min at 4° C.) and washed twice with cold PBS. Cells were lysed with SDS lysis buffer (50 mM Tris-HCl pH 8, 10 mM EDTA, 1% SDS) containing protease inhibitors, and placed on ice for 10 min. Volume equivalent to 2×10^6 cells was sonicated to shear the chromatin (Branson SFX 150), and cleared using centrifugation (12,000 g, 10 min at 4° C.). The supernatant was diluted 1:10 in dilution buffer (0.01% SDS, 1.1% Triton X-100, 1.2 mM EDTA, 16.7 mM Tris-HCl pH 8, 167 mM NaCl)+protease inhibitors, pre-cleared using magnetic Protein G beads (Thermo Fisher Scientific 10003 D), for ˜2 hr at 4° C., cleared by separating the beads with a magnet, and 2% of the pre-cleared supernatant was kept at −20° C. as input. […] Eluted chromatin was analyzed with qPCR, using primer pairs specific for different Pou5f1/Oct4 regions.

In the case of `CN1CC[C@H](c2c(O)cc(O)c3c(=O)cc(-c4ccccc4Cl)oc23)[C@H](O)C1` [flavopiridol], the “Pol II ChIP signal at Pou5f1 gene body and 3'UTR regions” value was “significant and near-complete losses”.
